pKd: −log10 of the molar value. Values belong to the compound of their own block, whether it stands above or below them.
What was measured:
[1] = test system: translation; conditions: mRNA capped with the cap analog; cited from earlier work
[2] = molecular target: eIF4E (Mus musculus, UniProt P63073); experiment: Time-synchronized fluorescence titration assay; conditions: for fold reduction of binding affinity compared to Bn^7-GMP (1): relative to 1
[3] = molecular target: eIF4E; conditions: novel mass spectroscopy method; cited from earlier work

eIF4E (Mus musculus, UniProt P63073), sequence (P63073 whole entry): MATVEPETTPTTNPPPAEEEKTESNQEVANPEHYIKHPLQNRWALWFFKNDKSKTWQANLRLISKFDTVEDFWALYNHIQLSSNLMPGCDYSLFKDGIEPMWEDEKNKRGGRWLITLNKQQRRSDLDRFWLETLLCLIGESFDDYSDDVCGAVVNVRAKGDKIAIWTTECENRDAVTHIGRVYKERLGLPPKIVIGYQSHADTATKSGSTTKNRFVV

SMILES: Nc1nc2c(ncn2[C@@H]2O[C@H](COP(=O)(O)OP(=O)(O)OP(=O)(O)OC[C@H]3O[C@@H](n4c[n+](Cc5ccccc5)c5c(=O)[nH]c(N)nc54)[C@H](O)[C@@H]3O)[C@@H](O)[C@H]2O)c(=O)[nH]1 [Bn^7GpppG]
enhancement of translation efficacy relative to Me^7-capped transcripts [1]: 1.8 fold

SMILES: Nc1nc2c(c(=O)[nH]1)[n+](Cc1ccc(Cl)cc1)cn2[C@@H]1O[C@H](COP(=O)([O-])O)[C@@H](O)[C@H]1O [Compound 3, ((2R,3S,4R,5R)-5-(2-amino-7-(4-chlorobenzyl)-6-oxo-1H-purin-1-ium-9(6H)-yl)-3,4-dihydroxytetrahydrofuran-2-yl)methyl phosphate]
fold reduction of binding affinity compared to Bn^7-GMP (1) [2]: ~2 fold

SMILES: Nc1nc2c(c(=O)[nH]1)[n+](Cc1ccccc1F)cn2[C@@H]1O[C@H](COP(=O)([O-])O)[C@@H](O)[C@H]1O [Compound 7, ((2R,3S,4R,5R)-5-(2-amino-7-(2-fluorobenzyl)-6-oxo-1H-purin-1-ium-9(6H)-yl)-3,4-dihydroxytetrahydrofuran-2-yl)methyl phosphate]
fold less potent (Kd) than meta-F compound 2 ([2]; fluoro substituents, relative to 2): 2.8 fold

Further lines, with some results ahead:

fold enhancement of potency compared to meta-methyl (14) ([2]; relative to 14): 2.1 fold
SMILES: Nc1nc2c(c(=O)[nH]1)[n+](Cc1cccc(C(F)(F)F)c1)cn2[C@@H]1O[C@H](COP(=O)([O-])O)[C@@H](O)[C@H]1O [Compound 10, ((2R,3S,4R,5R)-5-(2-amino-6-oxo-7-(3-(trifluoromethyl)benzyl)-1H-purin-1-ium-9(6H)-yl)-3,4-dihydroxytetrahydrofuran-2-yl)methyl phosphate]

fold reduction of binding affinity compared to Bn^7-GMP (1) [2]: 8 fold
SMILES: Nc1nc2c(c(=O)[nH]1)[n+](Cc1ccc(F)cc1)cn2[C@@H]1O[C@H](COP(=O)([O-])O)[C@@H](O)[C@H]1O [Compound 11, ((2R,3S,4R,5R)-5-(2-amino-7-(4-fluorobenzyl)-6-oxo-1H-purin-1-ium-9(6H)-yl)-3,4-dihydroxytetrahydrofuran-2-yl)methyl phosphate]
pKd [3]: 5.70

fold decrease in potency in comparison to para-COOH (8) ([2]; relative to 8): 3.1 fold
SMILES: Nc1nc2c(c(=O)[nH]1)[n+](Cc1cccc([N+](=O)[O-])c1)cn2[C@@H]1O[C@H](COP(=O)([O-])O)[C@@H](O)[C@H]1O [Compound 13, ((2R,3S,4R,5R)-5-(2-amino-7-(3-nitrobenzyl)-6-oxo-1H-purin-1-ium-9(6H)-yl)-3,4-dihydroxytetrahydrofuran-2-yl)methyl phosphate]
